Test results reported in patent publication US9676704B2, “Pesticidal compositions and processes related thereto” (Dow AgroSciences LLC, priority 2014, dated 2017).

What was measured:
Beet Armyworm (BAW) = experiment: Bioassays on BAW, 128-well diet tray assay; format: in vivo; settings: Spodoptera exigua; for mortality at 0.05 µg/cm2: 0.05 μg/cm^2; for mortality at 0.05 µg/cm2 / mortality at 0.5 µg/cm2 / mortality at 5 µg/cm2: read-out: BAW Percent control (or mortality); for mortality at 0.5 µg/cm2: 0.5 μg/cm^2; for mortality at 5 µg/cm2: 5 μg/cm^2; for mortality at 50 µg/cm2: 168 h, 50 μg/cm^2 on artificial diet, second instar larvae, five to seven days, 25° C., read-out: BAW % Control (or Mortality) rating
Description: Bioassays on BAW were conducted using a 128-well diet tray assay. one to five second instar BAW larvae were placed in each well (3 mL) of the diet tray that had been previously filled with 1 mL of artificial diet to which 50 μg/cm^2 of the test compound (dissolved in 50 μL of 90:10 acetone-water mixture) had been applied (to each of eight wells) and then allowed to dry. Trays were covered with a clear self-adhesive cover, and held at 25° C., 14:10 light-dark for five to seven days. Percent mortality was recorded for the larvae in each well; activity in the eight wells was then averaged. The results are indicated in the tables entitled “Table ABC: Assay Results (F)”, “Table ABCD: Assay Results (C)”, and “Table ABCDE: Assay Results (P)” (See Table Section).
(§1) Bioassays on BAW and CL were conducted according to the procedures outlined in Example A: Bioassays on Beet Armyworm (“BAW”) and Cabbage Looper (“CL”) using the following concentrations: 5, 0.5, and 0.05 μg/cm^2.

Cabbage Looper (CL) = experiment: Bioassays on CL, 128-well diet tray assay; format: in vivo; settings: Trichoplusia ni; for mortality at 0.05 µg/cm2: 0.05 μg/cm^2; for mortality at 0.05 µg/cm2 / mortality at 0.5 µg/cm2 / mortality at 5 µg/cm2: read-out: CL Percent control (or mortality); for mortality at 0.5 µg/cm2: 0.5 μg/cm^2; for mortality at 5 µg/cm2: 5 μg/cm^2; for mortality at 50 µg/cm2: 168 h, 50 μg/cm^2 on artificial diet, second instar larvae, five to seven days, 25° C., read-out: CL % Control (or Mortality) rating
Description: Bioassays on CL were conducted using a 128-well diet tray assay. One to five second instar CL larvae were placed in each well (3 mL) of the diet tray that had been previously filled with 1 mL of artificial diet to which 50 μg/cm^2 of the test compound (dissolved in 50 μL of 90:10 acetone-water mixture) had been applied (to each of eight wells) and then allowed to dry. Trays were covered with a clear self-adhesive cover, and held at 25° C., 14:10 light-dark for five to seven days. Percent mortality was recorded for the larvae in each well; activity in the eight wells was then averaged. The results are indicated in the table entitled “Table ABC: Assay Results (F)”, “Table ABCD: Assay Results (C)”, and “Table ABCDE: Assay Results (P)” (See Table Section).
as §1

SMILES | mortality at 0.05 µg/cm2 (Beet Armyworm (BAW)) [%] | mortality at 0.5 µg/cm2 (Beet Armyworm (BAW)) [%] | mortality at 5 µg/cm2 (Beet Armyworm (BAW)) [%] | mortality at 0.05 µg/cm2 (Cabbage Looper (CL)) [%] | mortality at 0.5 µg/cm2 (Cabbage Looper (CL)) [%] | mortality at 5 µg/cm2 (Cabbage Looper (CL)) [%] | mortality at 50 µg/cm2 (Beet Armyworm (BAW)) [%] | mortality at 50 µg/cm2 (Cabbage Looper (CL)) [%]
C[C@H](NC(=O)CCC(F)(F)F)NC(=O)c1ccc(/C=C/C(c2cc(Cl)c(Cl)c(Cl)c2)C(F)(F)F)cc1 (stereo partly drawn) [FC1, 4-((E)-4,4,4-Trifluoro-3-(3,4,5-trichlorophenyl)but-1-en-1-yl)-N—((R)-1-(4,4,4-trifluorobutanamido)ethyl)benzamide] | 0 | 0 | 13 | 0 | 0 | 71 | – | –
Cc1cc(/C=C/C(c2cc(Cl)c(Cl)c(Cl)c2)C(F)(F)F)ccc1C(=O)N[C@H](C)NC(=O)CC(F)(F)F (stereo partly drawn) [Compound P22, 2-Methyl-4-((E)-4,4,4-trifluoro-3-(3,4,5-trichlorophenyl)but-1-en-1-yl)-N—((R)-1-(3,3,3-trifluoropropanamido)ethyl)benzamide] | 25 | 100 | 100 | 63 | 100 | 100 | 50 to 100 | 50 to 100
C[C@H](NC(=O)CCS(C)(=O)=O)NC(=O)c1ccc(/C=C/C(c2cc(Cl)c(Cl)c(Cl)c2)C(F)(F)F)cc1C(F)(F)F (stereo partly drawn) [Compound P47, N—((R)-1-(3-(methylsulfonyl)propanamido)ethyl)-4-((E)-4,4,4-trifluoro-3-(3,4,5-trichlorophenyl)but-1-en-1-yl)-2-(trifluoromethyl)benzamide] | – | – | – | – | – | – | 50 to 100 | 50 to 100
CSCCC(=O)N[C@@H](C)NC(=O)c1ccc(/C=C/C(c2cc(Cl)c(Cl)c(Cl)c2)C(F)(F)F)cc1C(F)(F)F (stereo partly drawn) [Compound P53, N—((R)-1-(3-(Methylthio)propanamido)ethyl)-4-((E)-4,4,4-trifluoro-3-(3,4,5-trichlorophenyl)but-1-en-1-yl)-2-(trifluoromethyl)benzamide] | – | – | – | – | – | – | 50 to 100 | 50 to 100
Cc1cc(/C=C/C(c2cc(Cl)c(Br)c(Cl)c2)C(F)(F)F)ccc1C(=O)N[C@H](C)NC(=O)CC(F)(F)F (stereo partly drawn) [Compound P8, 4-((E)-3-(4-Bromo-3,5-dichlorophenyl)-4,4,4-trifluorobut-1-en-1-yl)-2-methyl-N—((R)-1-(3,3,3-trifluoropropanamido)ethyl)benzamide] | – | – | – | – | – | – | 50 to 100 | 50 to 100
C[C@H](NC(=O)CC(F)(F)F)NC(=O)c1ccc(/C=C/C(c2cc(Cl)c(F)c(Cl)c2)C(F)(F)F)cc1C(F)(F)F (stereo partly drawn) [Compound P1, 4-((E)-3-(3,5-Dichloro-4-fluorophenyl)-4,4,4-trifluorobut-1-en-1-yl)-2-(trifluoromethyl)-N—((R)-1-(3,3,3-trifluoropropanamido)ethyl)benzamide] | – | – | – | – | – | – | 50 to 100 | 50 to 100
O=C(CCC(F)(F)F)NCNC(=O)c1ccc(/C=C/C(c2cc(Cl)c(Cl)c(Cl)c2)C(F)(F)F)cc1C(F)(F)F (stereo not shown) [Compound F13, (E)-4-(4,4,4-Trifluoro-3-(3,4,5-trichlorophenyl)but-1-en-1-yl)-N-((4,4,4-trifluorobutanamido)methyl)-2-(trifluoromethyl)benzamide] | – | – | – | – | – | – | 50 to 100 | 50 to 100
C[C@H](NC(=O)CS(C)(=O)=O)NC(=O)c1ccc(/C=C/C(c2cc(Cl)c(Cl)c(Cl)c2)C(F)(F)F)cc1C(F)(F)F (stereo partly drawn) [Compound P43, N—((S)-1-(2-(Methylsulfonyl)acetamido)ethyl)-4-((E)-4,4,4-trifluoro-3-(3,4,5-trichlorophenyl)but-1-en-1-yl)-2-(trifluoromethyl)benzamide] | – | – | – | – | – | – | 50 to 100 | 50 to 100
C[C@H](NC(=O)CCC(F)(F)F)NC(=O)c1ccc(/C=C/C(c2cc(Cl)c(F)c(Cl)c2)C(F)(F)F)cc1C(F)(F)F (stereo partly drawn) [Compound P9, 4-((E)-3-(3,5-Dichloro-4-fluorophenyl)-4,4,4-trifluorobut-1-en-1-yl)-N—((R)-1-(4,4,4-trifluorobutanamido)ethyl)-2-(trifluoromethyl)benzamide] | – | – | – | – | – | – | 50 to 100 | 50 to 100
